Laboratory results from ChEMBL document CHEMBL3352618, “Discovery of novel pyrimidine and malonamide derivatives as TGR5 agonists” (Bioorg Med Chem Lett, 2014).

Columns and labels:
Assay type in all cases: ADME, organism-based
[1] = Half life in male ICR mouse at 5 mg/kg, iv; parameters: dose 5 mg/kg, route intravenous; details: in vivo
[2] = AUC (0 to 7 hrs) in male ICR mouse at 5 mg/kg, iv; parameters: time < 7 hr, dose 5 mg/kg, route intravenous; details: plasma
[3] = Oral bioavailability in male ICR mouse at 10 mg/kg; details: in vivo
Mus musculus [4] = test: Volume of distribution at steady state in male ICR mouse at 5 mg/kg, iv; parameters: dose 5 mg/kg, route intravenous; details: in vivo
[5] = Tmax in male ICR mouse at 10 mg/kg, po; parameters: dose 10 mg/kg, route oral; details: in vivo
Mus musculus [6] = test: Clearance in male ICR mouse at 5 mg/kg, iv; parameters: dose 5 mg/kg, route intravenous; details: in vivo
[7] = AUC (0 to 7 hrs) in male ICR mouse at 10 mg/kg, po; parameters: time < 7 hr, dose 10 mg/kg, route oral; details: plasma
[8] = Cmax in male ICR mouse at 10 mg/kg, po; parameters: dose 10 mg/kg, route oral; details: in vivo
Mus musculus [9] = test: Mean residence time (last) in male ICR mouse at 5 mg/kg, iv; parameters: dose 5 mg/kg, route intravenous; details: in vivo
Mus musculus [10] = test: Volume of distribution at steady state in male ICR mouse at 10 mg/kg, po; parameters: dose 10 mg/kg, route oral; details: in vivo
[11] = Clearance in male ICR mouse at 10 mg/kg, po; parameters: dose 10 mg/kg, route oral; details: in vivo
[12] = Mean residence time (last) in male ICR mouse at 10 mg/kg, po; parameters: dose 10 mg/kg, route oral; details: in vivo
[13] = Half life in male ICR mouse at 10 mg/kg, po; parameters: dose 10 mg/kg, route oral; details: in vivo

CN1CCN(C(=O)c2cnc(O)nc2Oc2cc(Cl)ccc2Cl)c2ccccc21
half-life [1]: 1.45 h
AUC(0-t) at 7 h [2]: 1430 ng·h/mL
bioavailability [3]: 13.9%
Vdss (Mus musculus [4]): 7.31 L/kg
Tmax [5]: 1 h
CL (Mus musculus [6]): 58.2 mL/min/kg
AUC(0-t) at 7 h [7]: 397 ng·h/mL
Cmax [8]: 236 ng/mL
MRT (Mus musculus [9]): 0.2 h
Vdss (Mus musculus [10]): 90.5 L/kg
CL/F [11]: 369 mL/min/kg
MRT last [12]: 1.97 h
half-life [13]: 2.83 h
